Data on nine compounds can be found in patent US7314858B2, “Retrocyclins: antiviral and antimicrobial peptides” (priority 2001, dated 2008).

Where “and” joins values, the source holds several entries; their conditions need not be identical. Equal values may be shown once. Where a SMILES comes first, the peptide text is derived from it. Bridges are numbered along the chain shown (N, C = ends). [ ]: non-standard residue; d: D form.

For the first series, the system named is human red blood cells. Put plainly: Hemagglutination of washed red blood cells in PBS.
Details: not given
How it is done:
Hemagglutination was tested by adding the stated concentration of peptide to a well comprising red blood cells (shown in FIG. 22). When the RBC are agglutinated, they clump together and settle rapidly and form a diffuse circle covering much of the bottom of the well. In the absence of agglutination, they settle more slowly and form a compact red button in the center of the well.
Sequences of retrocyclin-related peptides that were synthesized and either tested for activity against HIV-1 (see FIGS. 21A and 21B) and/or for their ability to cause human red blood cells to hemagglutinate or both. NT signifies not tested. Linear sequences appear in the table, but all peptides were cyclic and contained three intramolecular disulfide bonds. Hemagglutination of washed human red blood cells was tested in PBS, at peptide concentrations of 50, 25, 12.5 6.25 and 3.12 μg/ml. The lowest concentrations that caused hemagglutination are shown. Peptide concentrations were determined by amino acid analysis or by AUC (area under the curve) RP-HPLC analysis with reference to amino-acid analyzed standards.
In the case of “R→K Retrocyclin-1 (cyclo(GICKCICGKGICKCICGR); disulfide (positions not given here); ring closure inferred; not fully specified (bridges)) [RC119]”, the “Hemagglutination seen at a concentration of (lowest concentration that caused hemagglutination)” value (shortened to “Hemagglutination seen at a concentration”) is 50 µg/mL.

The series is the same for the next values; noted with them: washed human red blood cells in PBS.
With `CC[C@H](C)[C@@H]1NC(=O)CNC(=O)[C@H](CCCNC(=N)N)NC(=O)CNC(=O)[C@@H]2CSSC[C@H](NC1=O)C(=O)N[C@@H](CCCNC(=N)N)C(=O)N[C@H]1CSSC[C@H](NC(=O)[C@H](CCCNC(=N)N)NC(=O)[C@@H]3CSSC[C@H](NC(=O)[C@H]([C@@H](C)CC)NC1=O)C(=O)NCC(=O)N[C@@H](CCCNC(=N)N)C(=O)N[C@@H](CCCCN)C(=O)N[C@@H]([C@@H](C)CC)C(=O)N3)C(=O)N[C@@H]([C@@H](C)CC)C(=O)N2` [RC123C, Retrocyclin 2C] (cyclo(CGRGICRCICGRKICRCI); disulfide 1-6, 8-17, 10-15), the “Hemagglutination seen at a concentration” value came to 50 µg/mL and the “hemagglutination compared with retrocyclin” value was “less hemagglutination than retrocyclin-1 or retrocyclin-2”. `CC[C@@H](C)[C@H]1NC(=O)CNC(=O)[C@@H](CCCNC(=N)N)NC(=O)CNC(=O)[C@H]2CSSC[C@@H](NC1=O)C(=O)N[C@H](CCCNC(=N)N)C(=O)N[C@@H]1CSSC[C@@H](NC(=O)[C@@H](CCCNC(=N)N)NC(=O)[C@H]3CSSC[C@@H](NC(=O)[C@@H]([C@H](C)CC)NC1=O)C(=O)NCC(=O)N[C@H](CCCNC(=N)N)C(=O)NCC(=O)N[C@H]([C@H](C)CC)C(=O)N3)C(=O)N[C@H]([C@H](C)CC)C(=O)N2` [RC-112, enantio-retrocyclin] (cyclo(G[dI][dC][dR][dC][dI][dC]G[dR]G[dI][dC][dR][dC][dI][dC]G[dR]); disulfide 3-16, 5-14, 7-12): the “Hemagglutination seen at a concentration” value came to 50 µg/mL and the “hemagglutination compared with retrocyclin” value is on record as “less hemagglutination than retrocyclin-1 or retrocyclin-2”. In the case of `CC[C@H](C)[C@@H]1NC(=O)CNC(=O)[C@H](CCCNC(=N)N)NC(=O)CNC(=O)[C@@H]2CSSC[C@H](NC1=O)C(=O)N[C@@H](CCCCN)C(=O)N[C@H]1CSSC[C@H](NC(=O)[C@H](CCCNC(=N)N)NC(=O)[C@@H]3CSSC[C@H](NC(=O)[C@H]([C@@H](C)CC)NC1=O)C(=O)NCC(=O)N[C@@H](CCCNC(=N)N)C(=O)N[C@@H](CCCNC(=N)N)C(=O)N[C@@H]([C@@H](C)CC)C(=O)N3)C(=O)N[C@@H]([C@@H](C)CC)C(=O)N2` [RC123E, Retrocyclin 2E] (cyclo(CGRGICKCICGRRICRCI); disulfide 1-6, 8-17, 10-15), the “Hemagglutination seen at a concentration” value was determined as 25 µg/mL. With `CC[C@@H](C)[C@H]1NC(=O)CNC(=O)[C@@H](CCCCN)NC(=O)CNC(=O)[C@H]2CSSC[C@@H](NC1=O)C(=O)N[C@H](CCCNC(=N)N)C(=O)N[C@@H]1CSSC[C@@H](NC(=O)[C@@H](CCCNC(=N)N)NC(=O)[C@H]3CSSC[C@@H](NC(=O)[C@@H]([C@H](C)CC)NC1=O)C(=O)NCC(=O)N[C@H](CCCNC(=N)N)C(=O)NCC(=O)N[C@H]([C@H](C)CC)C(=O)N3)C(=O)N[C@H]([C@H](C)CC)C(=O)N2` [RC-113, enantio-RC-101], the “Hemagglutination seen at a concentration” value is 50 µg/mL and the “hemagglutination compared with retrocyclin” value is on record as “less hemagglutination than retrocyclin-1 or retrocyclin-2”. Regarding `CC[C@H](C)[C@@H]1NC(=O)CNC(=O)[C@H](CCCCN)NC(=O)CNC(=O)[C@@H]2CSSC[C@H](NC1=O)C(=O)N[C@@H](CCCNC(=N)N)C(=O)N[C@H]1CSSC[C@H](NC(=O)[C@H](CCCNC(=N)N)NC(=O)[C@@H]3CSSC[C@H](NC(=O)[C@H](Cc4ccc(O)cc4)NC1=O)C(=O)NCC(=O)N[C@@H](CCCNC(=N)N)C(=O)NCC(=O)N[C@@H]([C@@H](C)CC)C(=O)N3)C(=O)N[C@@H]([C@@H](C)CC)C(=O)N2` [RC-114, RC-101/103 hybrid] (cyclo(CGKGICRCYCGRGICRCI); disulfide 1-6, 8-17, 10-15), the “Hemagglutination seen at a concentration” value is 200 µg/mL and > 150 µg/mL; the “hemagglutination compared with retrocyclin” value is “much less hemagglutination than retrocyclin”. As for `CC[C@H](C)[C@@H]1NC(=O)CNC(=O)[C@H](CCCNC(=N)N)NC(=O)CNC(=O)[C@@H]2CSSC[C@H](NC1=O)C(=O)N[C@@H](CCCNC(=N)N)C(=O)N[C@H]1CSSC[C@H](NC(=O)[C@H](CCCNC(=N)N)NC(=O)[C@@H]3CSSC[C@H](NC(=O)[C@H]([C@@H](C)CC)NC1=O)C(=O)NCC(=O)N[C@@H](CCCCN)C(=O)N[C@@H](CCCCN)C(=O)N[C@@H]([C@@H](C)CC)C(=O)N3)C(=O)N[C@@H]([C@@H](C)CC)C(=O)N2` [RC123B, Retrocyclin 2B] (cyclo(CGKKICRCICGRGICRCI); disulfide 1-6, 8-17, 10-15), the “Hemagglutination seen at a concentration” value is 6.25 µg/mL. Consider `CC[C@H](C)[C@@H]1NC(=O)CNC(=O)[C@H](CCCNC(=N)N)NC(=O)CNC(=O)[C@@H]2CSSC[C@H](NC1=O)C(=O)N[C@@H](CCCNC(=N)N)C(=O)N[C@H]1CSSC[C@H](NC(=O)[C@H](CCCNC(=N)N)NC(=O)[C@@H]3CSSC[C@H](NC(=O)[C@H]([C@@H](C)CC)NC1=O)C(=O)NCC(=O)N[C@@H](CCCCN)C(=O)N[C@@H](CCCNC(=N)N)C(=O)N[C@@H]([C@@H](C)CC)C(=O)N3)C(=O)N[C@@H]([C@@H](C)CC)C(=O)N2` [RC123A, Retrocyclin 2A] (cyclo(CGKRICRCICGRGICRCI); disulfide 1-6, 8-17, 10-15), for which the “Hemagglutination seen at a concentration” value is 50 µg/mL and the “hemagglutination compared with retrocyclin” value is listed as “less hemagglutination than retrocyclin-1 or retrocyclin-2”. In the case of `CC[C@H](C)[C@@H]1NC(=O)CNC(=O)[C@H](CCCNC(=N)N)NC(=O)CNC(=O)[C@@H]2CSSC[C@H](NC1=O)C(=O)N[C@@H](CCCNC(=N)N)C(=O)N[C@H]1CSSC[C@H](NC(=O)[C@H](CCCCN)NC(=O)[C@@H]3CSSC[C@H](NC(=O)[C@H]([C@@H](C)CC)NC1=O)C(=O)NCC(=O)N[C@@H](CCCNC(=N)N)C(=O)N[C@@H](CCCNC(=N)N)C(=O)N[C@@H]([C@@H](C)CC)C(=O)N3)C(=O)N[C@@H]([C@@H](C)CC)C(=O)N2` [RC123D, Retrocyclin 2D] (cyclo(CGRGICRCICGRRICKCI); disulfide 1-6, 8-17, 10-15), the “Hemagglutination seen at a concentration” value was 50 µg/mL.
